Measured values reported in article PMC5512185 (International Journal for Parasitology: Drugs and Drug …, 2017).

Columns and labels:
[1] = system: Human HepG2; assay: Cytotoxicity on HepG2 cells; format: cell-based; conditions: for CC50: read-out: CC50 Human HepG2, CC50 ± SD, 48 h; for SIh Selectivity Index (human HepG2): CC50 HepG2 / EC50 amastigotes
[2] = system: Murine Splenocytes; assay: Cytotoxicity on uninfected ex vivo explants; format: cell-based, mouse; conditions: for SIS Selectivity Index (mouse splenocytes): CC50 non-infected mouse splenocytes / EC50 amastigotes; for CC50: read-out: CC50 Murine Splenocytes, CC50 ± SD, uninfected splenocytes, 48 h
[3] = Cytotoxicity on HepG2 cells; format: cell-based, human; conditions: human, HepG2 cells (ATCC HB-8065)
[4] = target: Leishmania tubulin (Leishmania infantum, UniProt A0A381MCS3+A4HTR0); assay: Tubulin polymerization assay; format: biochemical, L. infantum
Sequence of Leishmania tubulin (A4HTR0 1-443): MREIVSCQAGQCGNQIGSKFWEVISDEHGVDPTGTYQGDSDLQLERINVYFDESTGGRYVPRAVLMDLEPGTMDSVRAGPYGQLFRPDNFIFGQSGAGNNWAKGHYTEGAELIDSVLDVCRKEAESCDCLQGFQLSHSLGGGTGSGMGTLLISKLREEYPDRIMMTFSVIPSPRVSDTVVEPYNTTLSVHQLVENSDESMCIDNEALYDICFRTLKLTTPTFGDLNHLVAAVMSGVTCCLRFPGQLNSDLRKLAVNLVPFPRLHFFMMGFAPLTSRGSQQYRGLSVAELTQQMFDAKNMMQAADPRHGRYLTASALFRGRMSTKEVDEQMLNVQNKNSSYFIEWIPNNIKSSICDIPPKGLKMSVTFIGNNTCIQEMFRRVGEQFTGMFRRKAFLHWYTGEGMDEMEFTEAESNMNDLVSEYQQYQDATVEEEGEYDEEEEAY
Sequence of Leishmania tubulin (A0A381MCS3 1-451): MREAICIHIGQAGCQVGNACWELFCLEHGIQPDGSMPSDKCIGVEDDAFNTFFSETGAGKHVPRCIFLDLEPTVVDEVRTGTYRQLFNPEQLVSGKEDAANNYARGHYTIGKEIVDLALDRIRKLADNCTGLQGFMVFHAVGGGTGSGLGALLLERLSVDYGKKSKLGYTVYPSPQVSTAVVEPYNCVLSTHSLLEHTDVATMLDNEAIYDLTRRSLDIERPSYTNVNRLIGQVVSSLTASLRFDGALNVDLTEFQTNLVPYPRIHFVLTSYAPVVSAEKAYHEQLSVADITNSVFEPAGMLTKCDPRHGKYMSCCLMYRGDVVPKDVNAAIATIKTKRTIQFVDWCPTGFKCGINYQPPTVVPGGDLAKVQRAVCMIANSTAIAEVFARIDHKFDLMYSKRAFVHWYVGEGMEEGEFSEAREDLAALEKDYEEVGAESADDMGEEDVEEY

[5] = system: L. infantum promastigotes; assay: Promastigote in vitro assay; format: cell-based; conditions: Leishmania infantum, read-out: EC50 L. infantum promastigotes
[6] = Cytotoxicity on uninfected ex vivo explants; format: cell-based, mouse; conditions: mouse, uninfected ex vivo splenic explants (murine splenocytes)

Row | Inhibition of tubulin polymerization ([4]; 25 μM, positive control) | Compound | CC50 [1] [µM] | SIS Selectivity Index (mouse splenocytes) [2] | CC50 [2] [µM] | CC50 at 48 h [3] [µM] | SIh Selectivity Index (human HepG2) [1] | IC50 Leishmania tubulin polymerization inhibition ([4]; IC50 ± SD, 1.2 mg/mL tubulin, 37 °C) | EC50 [5] [µM] | CC50 at 48 h [6] [µM] | CC50 at 48 h ([6]; BALB/c) [µM]
1 |  | COc1cc([C@@H]2c3cc4c(cc3C[C@H]3COC(=O)[C@@H]32)OCO4)cc(OC)c1OC [Compound 1, deoxypodophyllotoxin] | > 100 | <1.0 | 98.6 ± 3.1 |  |  |  |  |  | 
2 |  | COc1cc([C@@H]2c3cc4c(cc3[C@H](O)[C@H]3COC(=O)[C@H]23)OCO4)cc(OC)c1OC [Compound 2a, podophyllotoxin] |  | >7.4 |  | 0.7 | 0.1 | under the μM level | > 100 | > 100 | 
3 |  | COc1cc([C@@H]2c3cc4c(cc3[C@@H](O)[C@H]3COC(=O)[C@H]23)OCO4)cc(OC)c1OC [Compound 2b, epipodophyllotoxin] |  |  |  | 30.6 ± 2.1 | <0.3 |  | > 100 | > 100 | 
4 |  | COc1cc([C@@H]2c3cc4c(cc3C(=O)[C@H]3COC(=O)[C@H]23)OCO4)cc(OC)c1OC [Compound 3, podophyllotoxone] | 10.3 ± 0.9 | <0.6 | 60.6 ± 7.7 |  | <0.1 |  |  |  | 
5 |  | COC(=O)[C@@H]1C(C=O)=Cc2cc3c(cc2[C@H]1c1cc(OC)c(OC)c(OC)c1)OCO3 [Compound 14, podophyllic aldehyde] |  | > 10.8 |  | > 100 | >10.8 |  | 89.5 ± 4.3 |  | > 100
6 |  | CCCCCCCCCCCCCCCCOP(=O)([O-])OCC[N+](C)(C)C [Miltefosine, miltefosine, reference compound] |  | 26.9 |  | 50.4 ± 4.3 | 21 |  | 5.9 ± 1.4 | 64.7 ± 7 | 
7 | inhibits completely | CC[C@]1(O)C[C@@H]2CN(CCc3c([nH]c4ccccc34)[C@@](C(=O)OC)(c3cc4c(cc3OC)N(C)[C@H]3[C@@](O)(C(=O)OC)[C@H](OC(C)=O)[C@]5(CC)C=CCN6CC[C@]43[C@@H]65)C2)C1 [Vinblastine, reference compound] |  |  |  |  |  |  |  |  | 
